For this assay, the system named is normal cynomolgus monkeys. Briefly: GnRH antagonist plus fixed gonadotropin regimen (FSH/LH or FSH only) followed by hCG. The settings on record: GnRH antagonist 1.0 mg/kg/day with gonadotropin 25 IU/day im, cycle days 3-9, versus gonadotropin-only controls. In kind it is in vivo. The source says: All of the groups received a fixed regimen of gonadotropin therapy for seven consecutive days (25 IU/day/im, cycle days 3-9) followed by hCG (1,000 IU/im) on cycle day 10.

“(Ac-pClPhe^1,pClPhe^2, DTrp^3, DArg^6, DAla^10)GnRH HCl [GnRH antagonist]”: the “variability in response to gonadotropin treatment” value is listed as “less”.

These data come from patent US4845077A, “Method of inducing ovulation” (Serono Laboratories, Inc., priority 1987, dated 1989).
